Here are results for two compounds from publication PMC9224258, “Zinc Coordination Compounds with Benzimidazole Derivatives: Synthesis, Structure, Antimicrobial Activity and Potential Anticancer Application” (International Journal of Molecular Sciences, 2022).

Test [1] deals with lung adenocarcinoma (A549) cell line. Put plainly: MTT cytotoxicity assay, A549. In kind it is cell-based, human. The conditions noted are these: MTT assay after 24 h incubation. As for the experimental part: (§1) The cytotoxic effect of the compounds was evaluated using glioblastoma (T98G), neuroblastoma (SK-N-AS) and lung adenocarcinoma (A549) cell lines and human normal skin fibroblasts (CCD-1059Sk). T98G and SK-N-AS cells were cultured in DMEM, high glucose; A549 cells were cultured in DMEM/F12; and CCD-1059Sk cells were cultured in MEM. All media were supplemented with 10% FBS, 100 U/mL of penicillin and […] of streptomycin (PenStrep). Cells were incubated at 37 °C in a humidified atmosphere of 5% CO2. Stock solutions were prepared by dissolving the compounds in sterile dimethyl sulfoxide (DMSO) to obtain the concentration of 50 mg/mL. The cells were seeded into 96-well sterile plates (Nunc) at a density of 1 × 10^5 cells/mL. After 24 h of incubation, the medium was removed from each well, and then cells were incubated for the next 24 h with different concentrations of the tested compounds (1–100 µg/mL) in respective medium containing 2% FBS. Cytotoxicity of the compounds was evaluated using the MTT assay, which is based on the conversion of 3-(4,5-dimethylthiazol-2-yl)-2,5-diphenyltetrazolium bromide (MTT) into dark-blue formazan crystals. Briefly, after 24 h incubation of cells with varying concentrations of the tested compounds, all culture media were removed from the plates. Cells were washed with PBS, and then 100 µL of medium containing 10% MTT solution (5 mg/mL) was added to each well. After 3 h incubation, 100 µL (per well) of 10% SDS buffer solution was added to solubilize formazan crystals. After overnight incubation, the absorbance was measured at 570 nm using a microplate reader (Epoch, BioTek Instruments). Experiments were repeated twice, and the measurements in each experiment were run in triplicate. The viability of the investigated cells was expressed as a percentage of the viability of the untreated cells, and the results were transformed into IC50 values (expressed as mean ± SD). […] The complexes were screened for antibacterial and antifungal activities by micro-dilution broth method using Mueller–Hinton broth for growth of bacteria or Mueller–Hinton broth with 2% glucose for growth of fungi. Minimal inhibitory concentrations (MICs) of the tested derivatives were evaluated for the panel of the reference microorganisms from the American Type Culture Collection (ATCC), including Gram-negative bacteria (Escherichia coli ATCC 25922, Salmonella Typhimurium ATCC14028, Klebsiella pneumoniae ATCC 13883, Pseudomonas aeruginosa ATCC 9027, Proteus mirabilis ATCC 12453), Gram-positive bacteria (Staphylococcus aureus ATCC 25923, Staphylococcus epidermidis ATCC 12228, Micrococcus luteus ATCC 10240, Enterococcus faecalis ATCC 29212, Bacillus subtilis ATCC 6633, Bacillus cereus ATCC 10876) and fungi (Candida albicans ATCC 10231, Candida parapsilosis ATCC 22019, C. glabrata ATCC 90030).

Test [2] has as its system human normal skin fibroblasts (CCD-1059Sk). Put plainly: MTT cytotoxicity assay, normal fibroblasts. The class given is cell-based. The conditions noted are these: MTT assay after 24 h incubation, normal cells. Here is the method: as §1
On the technique in general: Formazan colour is commonly taken as a measure of viable cells.

Test [3] has as its system lung adenocarcinoma (A549) cell line. Also on record: method as in earlier work. As to conditions: incubated for 24 h with A549 cells; ref 77 (Zhang F. et al.); cited from earlier work.
Test [4] has as its system neuroblastoma (SK-N-AS) cell line. Put plainly: MTT cytotoxicity assay, SK-N-AS. The class given is cell-based, human. As to conditions: MTT assay after 24 h incubation. As for the experimental part:
as §1

The test system of test [5] is glioblastoma (T98G) cell line. The test can be described thus: MTT cytotoxicity assay, T98G. In kind it is cell-based. As to conditions: MTT assay after 24 h incubation. As for the experimental part: as §1
The next test relates to P. aeruginosa ATCC 9027. Put plainly: micro-dilution broth MIC. The class given is cell-based, Pseudomonas aeruginosa. As to conditions: Gram-negative. As for the experimental part: as §1
On the technique in general: In broth dilution the organism is exposed to a series of concentrations in liquid medium.

The subject of another test is M. luteus ATCC 10240. The test can be described thus: micro-dilution broth MIC. The conditions noted are these: M. luteus ATCC 10240; Gram-positive. The class given is cell-based, Micrococcus luteus. Here is the method: as §1
The subject of another test is K. pneumoniae ATCC 13883. Put plainly: micro-dilution broth MIC. The class given is cell-based, Klebsiella pneumoniae. The conditions noted are these: Gram-negative. As for the experimental part:
as §1

In a further test the test system is E. faecalis ATCC 29212. Put plainly: micro-dilution broth MIC. The class given is cell-based, Enterococcus faecalis. As to conditions: E. faecalis ATCC 29212; Gram-positive. Here is the method: as §1
A further test deals with S. aureus ATCC 25923. The test can be described thus: micro-dilution broth MIC. In kind it is cell-based, Staphylococcus aureus. As to conditions: S. aureus ATCC 25923; Gram-positive. Here is the method:
as §1

A further test relates to B. cereus ATCC 10876. Put plainly: micro-dilution broth MIC. In kind it is cell-based, Bacillus cereus. As to conditions: B. cereus ATCC 10876; Gram-positive. As for the experimental part:
as §1

A further test relates to P. mirabilis ATCC 12453. Put plainly: micro-dilution broth MIC. The class given is cell-based, Proteus mirabilis. As to conditions: Gram-negative. As for the experimental part: as §1
For test [6], the system named is S. epidermidis ATCC 12228. Put plainly: micro-dilution broth MIC. As to conditions: S. epidermidis ATCC 12228; Gram-positive. In kind it is cell-based, Staphylococcus epidermidis. Here is the method:
as §1

A further test deals with E. coli ATCC 25922. The test can be described thus: micro-dilution broth MIC. In kind it is cell-based, Escherichia coli. As to conditions: Gram-negative. As for the experimental part:
as §1

Test [7] relates to S. typhimurium ATCC 14028. The test can be described thus: micro-dilution broth MIC. The class given is cell-based, Salmonella Typhimurium. As to conditions: Gram-negative. As for the experimental part:
as §1

The test system of a further test is C. albicans ATCC 102231. Put plainly: micro-dilution broth MIC. The class given is cell-based, Candida albicans. The conditions noted are these: yeast. Here is the method:
as §1

A further test concerns B. subtilis ATCC 6633. Put plainly: micro-dilution broth MIC. In kind it is cell-based, Bacillus subtilis. As to conditions: B. subtilis ATCC 6633; Gram-positive. Here is the method: as §1
The next test deals with C. glabrata ATCC 2091. The test can be described thus: micro-dilution broth MIC. The conditions noted are these: yeast. In kind it is cell-based.
In test [8] the test system is C. parapsilosis ATCC 22019. Put plainly: micro-dilution broth MIC. The class given is cell-based, Candida parapsilosis. The conditions noted are these: yeast. Here is the method: as §1

≈ marks a conversion by molar mass, not a printed value.

Broadly, the IC50 is the concentration needed to halve the response being measured. Consider `COc1cc([C@@H]2c3cc4c(cc3[C@@H](O[C@@H]3O[C@@H]5CO[C@@H](C)O[C@H]5[C@H](O)[C@H]3O)[C@H]3COC(=O)[C@H]23)OCO4)cc(OC)c1O` [Etoposide, reference compound], for which the IC50 in [1] (Homo sapiens, A549, read-out: IC50 ± SD, A549) is over 100 µg/mL; in [2] (Homo sapiens, CCD-1059Sk, read-out: IC50 ± SD, CCD-1059-Sk) it was over 100 µg/mL; in test [4] (Homo sapiens, SK-N-AS, read-out: IC50 ± SD, SK-N-AS), 67.8 ± 2.03 µg/mL (≈ 115 µM); in test [5] (Homo sapiens, T98G, read-out: IC50 ± SD, T98G), over 100 µg/mL. The “median inhibitory concentration (IC50), A549” value in [3] is 115 µg/mL.

By MIC is commonly meant the smallest concentration in the dilution series that meets the test's criterion for growth inhibition. Low values mean a more susceptible organism, high ones a less susceptible organism. In the case of `[Cl][Zn][Cl].[Cl][Zn][Cl].c1cnc2[nH]c(-c3ccncc3)nc2c1.c1cnc2[nH]c(-c3ccncc3)nc2c1` [Complex C2], the MIC against P. aeruginosa ATCC 9027 was over 1000 µg/mL; against M. luteus ATCC 10240, 250 µg/mL; with K. pneumoniae ATCC 13883 it was 1000 µg/mL; against E. faecalis ATCC 29212, 1000 µg/mL; in the test on S. aureus ATCC 25923 it was 500 µg/mL; against B. cereus ATCC 10876, 500 µg/mL. Besides, the MIC in the test with P. mirabilis ATCC 12453 is 1000 µg/mL; in [6], 500 µg/mL; against E. coli ATCC 25922 it was 1000 µg/mL; in test [7], 1000 µg/mL; with C. albicans ATCC 102231, 1000 µg/mL; in the test with B. subtilis ATCC 6633, 500 µg/mL. The MIC (with C. glabrata ATCC 2091; in test [8]) was over 1000 µg/mL in each case. Besides, the “IC50 ± SD, A549” value in test [1] was 34.44 ± 0.75 µg/mL. Also, in [2], the “IC50 ± SD, CCD-1059-Sk” value is listed as 27.27 ± 1.05 µg/mL. For the same compound, in test [4], the “IC50 ± SD, SK-N-AS” value stood at 33.72 ± 0.39 µg/mL. In addition, in test [5], the “IC50 ± SD, T98G” value is 24.29 ± 0.11 µg/mL.
